Measurements: patent US10576082B2, “ErbB2 regulates autophagic flux to modulate the proteostasis of APP-CTFs in alzheimer's disease” (Academia Sinica, priority 2016, dated 2020)

How the values were obtained:
[1] = tested on: HEK293 cells overexpressing C99-YFP; test: Secreted Aβ40 ELISA, conditional media of HEK293 cells overexpressing C99-YFP; type: cell-based; details: 1 μM, 37° C., 24 h
Description: Clarified lysates containing equivalent amounts of proteins were analyzed by Western blotting. (B, C) HEK293 overexpressing CFP-LC3 cells were infected with lentivirus encoding shRNA targeting LacZ ErbB2, or ErbB2 plus ATG5 for 48 h. The autophagy induction was analyzed by fluorescence confocal microscopy. The number of CFP-LC3 puncta per cell was quantified. The levels of LC3-I, LC3-II, and GAPDH were analyzed by Western blotting. (D, E) HEK293 cells overexpressing ErbB1, ErbB2, CFP-tagged C99, and YFP-tagged NΔE were infected with lentivirus encoding shRNA targeting LacZ (Ctrl), ErbB1, or ErbB2 for 48 h. […] The levels of LC3-1, LC3-II, and p62 were analyzed by Western blotting and quantified by NIH Image J. Conditional media were harvested and processed for determination of secreted Aβ40 using a colourimetric Aβ40-specific ELISA kit. […] The quantitative data are shown as mean±SD from three independent experiments, and were analyzed by Student's t-tests. * p<0.05.
(§1) Cell-based γ-secretase assays for the nuclear function of AICD or NICD. […] Cellular luminescence was determined by the addition of Steady-Glo Luciferase Assay reagents (PROMEGA™), according to the manufacturer's instructions. […] The level of secreted Aβ40 was quantified using a human Aβ40 sandwich ELISA kit (Invitrogen) according to the manufacturer's instructions.

[2] = tested on: IMR32 neuroblastoma cells overexpressing C99-YFP; test: Secreted Aβ40 ELISA, conditional media of IMR32 cells overexpressing C99-YFP; type: cell-based, human; details: compound 1 μM, 37° C., 24 h
Description: (§2) (A) IMR32 cells overexpressing C99-YFP were grown with 2 ml fresh culture medium in 6-well plates, and treated with 1 μM CL-387,785 or DAPT at 37° C. for 24 h. The cell extracts were analyzed by Western blotting. (B) Conditional media were harvested and processed for determination of secreted Aβ40 using a colorimetric Aβ40-specific ELISA kit. (C) C99-YFP-expressing IMR32 cells (160,000 cells/well) were seeded onto 6-well plates and cultured at 37° C. for 24 h, and infected with ErbB1- or ErbB2-targeting shRNA lentivirus for an additional 48 h. Infection mixtures were replaced with 2 ml fresh culture medium, and infected cells were then incubated at 37° C. for an additional 24 h. The cell extracts were analyzed by Western blotting with anti-GFP antibody. (D) The conditioned media were harvested and processed for determination of secreted Aβ40. Data are the mean±SD from three independent experiments, and were analyzed by Student's t-tests. * p<0.05. (E) Schematic presentation of the DNA construct encoding recombinant C99-GFP-P2A-GFP. […]
as §1

[3] = tested on: zebrafish embryos expressing GFP-tagged C99; test: C99-expressing zebrafish model of AD, Western blotting of embryo lysates; type: in vivo; details: treated from 48 hpf to 72 hpf at 28° C.
Description: as §2, with “C99-GFP-P2A-GFP. CMV, human cytomegalovirus promoter; CI, chimeric intron; P2A, porcine teschovirus 2A peptide.” for “C99-GFP-P2A-GFP.”
Overexpression of APP-C99 zebrafish. […] Clarified lysates containing equal amounts of protein were analyzed by Western blotting.

[4] = tested on: APPswe/PS1ΔE9 double transgenic mice; test: Morris water maze in APPswe/PS1ΔE9 transgenic mice; type: in vivo, mouse; details: 5 mg/kg daily oral
[5] = tested on: APPswe/PS1ΔE9 double transgenic mice; test: Western blotting of brain homogenates of treated APPswe/PS1ΔE9 mice; type: in vivo, mouse; details: 5 mg/kg daily oral, 20 days

## CC#CC(=O)Nc1ccc2ncnc(Nc3cccc(Br)c3)c2c1 [CL-387,785, N-[4-[(3-bromophenyl)amino]-6-quinazolinyl]-2-butynamide]
[1]
  secreted Aβ40 production: effectively decreased
[2]
  level of secreted Aβ40: significantly reduced
[3]
  level of AICD in embryos: concomitant clearance
  level of C99 in embryos: concomitant clearance
[4]; after 3 weeks of daily dosing (day 21)
  probe test with invisible platform (cognitive function versus vehicle-treated AD mice): dramatic cognitive improvement
[4]; after 16 days of daily dosing
  spatial learning (escape latency, Morris water maze): significantly enhanced spatial learning
[5]
  brain level of APP-CTF: significant reduction
  brain level of ErbB2: significant reduction
  brain level of p62: significant reduction
  brain level of total APP: steady level
  brain ratio of LC3-II to LC3-I: increase
